Results as given in US8355877B2, “System for predicting responsiveness to a pharmaceutical therapy for obesity” (priority 2007, dated 2013).

Key:
[1] = test system: DIO-LE rats maintained on a high fat chow; test: Cross therapeutic target rat study: reduction of TRL V6 concentration (NMR LipoProfile) after an acute dose; format: in vivo
Method: (§1) As a typical example, whole blood samples are collected into 2 ml EDTA blood collection tubes, inverted several times to mix well, and placed on ice. The samples are then centrifuged at approximately 3000 rpm for 10-15 minutes at 4° C. Upon completion of centrifugation, the tube is placed on ice and the plasma is drawn off. The plasma is place into a polypropylene tube and kept at 4° C. until analysis. Samples may be analyzed at any time up to about 4 days after collection. Samples are analyzed for TRL V6 response, as for example by NMR plasma lipoprotein analysis, as for example, the NMR LipoProfile®, the NMR LipoProfile®-II or the NMR LipoProfile®-III lipoprotein tests provided by LipoScience, Inc. of Raleigh, N.C.
(§2) NMR spectral data is analyzed as described in Jeyarajah et al., supra. Lipoprotein subclass concentrations are reported in lipid mass concentration units (TRL subclasses in units of mg/dL triglyceride) or, alternatively, in particle concentration units of nmol/L (nanomoles of particles per liter). The source information (NMR signal amplitude of each subclass) is transformed into these mass or particle concentration units by the analysis software, using a set of conversion factors obtained from chemical lipid and NMR analyses of isolated chylomicron, VLDL, LDL, and HDL subclass standards of normal lipid composition.
The ability of investigational weight loss pharmaceutical agents to reduce the TRL V6 concentration in rats is shown with three compounds targeting different mechanisms of action including a known potent and selective 5-HT2C receptor agonist, a known potent and selective CB-1 receptor antagonist/inverse agonist, and a potent SNDRI (sibutramine). Each of these compounds are known to induce weight loss in rats and thus the biomarker of reduction in TRL V6 concentration correlates to the investigational weight loss pharmaceutical agents' ability to induce weight loss. Conversely, an opiate antagonist, (naltrexone) which is known to be ineffective in inducing weight loss in rats or in overweight and obese human subjects (Malcolm R et al., Int. J. Obes. 1985; 9(5):347-53), is shown to not reduce the TRL V6 concentration in rats, again correlating the biomarker of reduction in TRL V6 concentration to the investigational weight loss pharmaceutical agents' ability to induce weight loss.
DIO-LE rats maintained on a high fat chow are administered either a vehicle dose or an acute dose of test compound. At specified time points post dose, animals are sacrificed and blood is collected in blood sample tubes containing EDTA and processed essentially as described above. Samples are analyzed by NMR LipoProfile® lipoprotein sub-particle test with report of all particle subtypes (specifically the TRL V6 concentration or particle number).

[2] = test system: hypertriglyceridemic and overweight and obese but otherwise healthy subjects; test: Human study with a SNDRI (sibutramine): TRL response to fat load, single-blind crossover vs placebo, NMR LipoProfile III; format: in vivo
Method: Note that where TRL V6 response can be equated with the response of a combination of subtypes, it is because the magnitude of the change in signal, which is due to the change of TRL V6 signal, is sufficiently large compared to the base line signal, to be a significant difference (i.e. the signal from TRL V6 in the base line signal dominates the combined signal so that a change in TRL V6 is reliably detected).
as §1, §2
A SNDRI (sibutramine) known to be able to induce weight loss in humans is tested to correlate its ability to reduce TRL V6 response plasma concentrations and V-TRL response in humans in an exploratory biomarker study employing a single-blind, crossover design, comparing sibutramine and placebo in hypertriglyceridemic and overweight and obese but otherwise healthy subjects.
Three cohorts containing 6 subjects each, undergo three periods during the study. Subjects are fasted overnight and two fasting blood draws are obtained, followed by breakfast at approximately 07:00 hours. Placebo or sibutramine is administered at approximately 10:00 hours. Blood sampling is begun approximately 1 hr. after the start of breakfast and continues at hourly intervals for 7 hr., and then every 2 hr. for the next 10 hr. A lunch according to Example fat load 2 is served at approximately 12:00 hours (approximately 60 to 65 g of fat). No other food is permitted until 12 hr. post fat load administration. Subjects are released after the last blood sampling for a 4 to 8-day washout period before return for the second testing period of the study. After the washout period, subjects are again fasted overnight. The procedures are then repeated as in the first testing period of the study except that each subject crosses over to receive the alternate treatment, sibutramine or placebo. Blood samples are collected, processed and analyzed essentially as described in Example 1 above.
TRL V6 responses and V-TRL responses are observed during the period from 5 to 11 hr. post fat load. […] In most subjects, the administration of sibutramine reduced the magnitude of the TRL V6 response and V-TRL response compared to their placebo-treated responses. Thus the reduction of the TRL V6 response and V-TRL response induced by the SNDRI correlates with the SNDRI known ability to induce weight loss in humans.

[3] = rats, 5-HT2C agonist 10 mg/kg, CB-1 antagonist 0.3 mg/kg, SNDRI 3 mg/kg, naltrexone 10 mg/kg oral
[4] = 5 hr. post dose, CB-1 antagonist 0.3 mg/kg, SNDRI 3 mg/kg, rats
[5] = AUC 5-11 hr. post fat load vs placebo, humans
[6] = AUC from lipid load vs placebo, Table 2

## O=C1CC[C@@]2(O)[C@H]3Cc4ccc(O)c5c4[C@@]2(CCN3CC2CC2)[C@H]1O5 [Naltrexone, naltrexone]
[1]; 10 mg/kg oral, 18 hr. post dose, rats
  TRL V6 level versus baseline at 18 hr. post dose: unchanged
[1]; 10 mg/kg orally administrated dose, rats
  effect on circulating TRL V6 levels: minimal effect
[1]; [3]
  time post dose at which TRL V6 plasma concentration returns to baseline: 5 h

## CC(C)CC(N(C)C)C1(c2ccc(Cl)cc2)CCC1 (stereo not drawn) [Sibutramine, sibutramine]
[1]; 2 hr. post dose, 3 mg/kg, rats
  reduction of TRL V6 concentration: about 78%
[1]; 2 hr. post dose, 5-HT2C agonist 10 mg/kg, SNDRI 3 mg/kg, naltrexone 10 mg/kg oral, rats
  reduction of circulating concentration of TRL V6: about 78%
[1]; [4]
  reduction of TRL V6 concentration: about 78%
  reduction of circulating concentration of TRL V6: about 78%
[1]; T1 (ie 2 hrs) post dose, dose per compound in column Dose (10, 0.3, 3, 10 mg/kg), DIO-LE rats
  Reduction in TRL V6 Response, T1-(ie 2 hrs): 78%
[1]; T2 (ie 5 hrs) post dose, dose per compound in column Dose, DIO-LE rats
  Reduction in TRL V6 Response, T2-(ie 5 hrs): 78%
[1]; T3 (ie 18 hrs) post dose, dose per compound in column Dose, DIO-LE rats
  Reduction in TRL V6 Response, T3-(ie 18 hrs): 0%
[1]; [3]
  time post dose at which TRL V6 plasma concentration returns to baseline: ≤ 18 h
[2]; [5]
  change in mean V-TRL response: statistically significant decrease
  change in the plasma concentrations of TRL V1, V2, V3, V4, or V5 subtypes: does not show a significant change
[2]; AUC 5-11 hr. post fat load, mixed effects model, statistically significant, humans
  decrease in the TRL V6 response (AUC) vs placebo: about 28%
[2]; [6]
  change in TRL V6+TRL V5: did not produce a significant change
  change in TRL V6+TRL V5+chylomicrons: did not produce a significant change
  change in TRL V6+chylomicrons: showed a significant change
  effect on TRL V6 response: reduced the TRL V6 response
[2]; TRL V5, AUC 5-11 hr. from lipid load, P 0.474
  Sibutramine/Placebo Ratio of AUC, TRL V5: 1.10
[2]; TRL V5, AUC 5-11 hr. time points from lipid load, human plasma, NMR
  Geometric LS Mean of AUC, TRL V5: 222.34
[2]; TRL V6 + Chy, AUC 5-11 hr. from lipid load, P 0.004
  Sibutramine/Placebo Ratio of AUC, TRL V6 + Chy: 0.81
[2]; TRL V6 + Chy, AUC 5-11 hr. time points from lipid load, human plasma, NMR
  Geometric LS Mean of AUC, TRL V6 + Chy: 205.0
[2]; TRL V6 + TRL V5, AUC 5-11 hr. from lipid load, P 0.091
  Sibutramine/Placebo Ratio of AUC, TRL V6 + TRL V5: 0.88
[2]; TRL V6 + TRL V5, AUC 5-11 hr. time points from lipid load, human plasma, NMR
  Geometric LS Mean of AUC, TRL V6 + TRL V5: 364.08
[2]; TRL V6 + V5 + Chy, AUC 5-11 hr. from lipid load, P 0.110
  Sibutramine/Placebo Ratio of AUC, TRL V6 + V5 + Chy: 0.89
[2]; TRL V6 + V5 + Chy, AUC 5-11 hr. time points from lipid load, human plasma, NMR
  Geometric LS Mean of AUC, TRL V6 + V5 + Chy: 458.04
[2]; TRL V6, AUC 5-11 hr. from lipid load, P 0.001
  Sibutramine/Placebo Ratio of AUC, TRL V6: 0.73
[2]; TRL V6, AUC 5-11 hr. time points from lipid load, human plasma, NMR
  Geometric LS Mean of AUC, TRL V6: 119.35
[2]; chylomicrons, AUC 5-11 hr. from lipid load, P 0.721
  Sibutramine/Placebo Ratio of AUC, Chy: 0.98
[2]; chylomicrons, AUC 5-11 hr. time points from lipid load, human plasma, NMR
  Geometric LS Mean of AUC, Chy: 81.11
